In US20230340364A1, “Fabric Softening Compositions” (Colgate-Palmolive Company, priority 2020, published 2023):

Experiment: Dispersibility of the preservative into the finished product
Format: physicochemical
Conditions: preservative post-added (IPBC 0.2%, DGH 0.1%)
Method: For 90 kg batch, initial 20% of water is heated to 47.7° C., the agitation is set to 32.5 Hz, then color (1 min of agitation), lactic acid (1 min of agitation), etidronic acid (1 min of agitation) and PQ7 (3 min of agitation) is added. Afterward, the pre-heated esterquat at 60-65° C. is added for 10 seconds and mixture for 5 min. After esterquat addition, the 75% of the remaining water (15° C.) is added and mixed for 5 min more. The final composition is completed with the addition of the rest of the components keeping the agitation at 35 Hz; thickener (10 min of agitation), blend of slurry fragrance capsules (water/capsules; 10:1) (5 min of agitation) and oil perfume (10 min of agitation). For the reference sample, 5% of additional water is post-added to the mixture (5 min of agitation). In the case of the control sample, 0.02% of DPIII is post added with the remaining water to cover the % of hole (5 min of agitation). For the alternative test compositions with IPBC, IPBC is post-added at 0.2% as is. […]
The negative control, positive control, Test composition 1, and Test composition 2, described in Table 1 of Example 1 are first evaluated for their dispersibility into the product and their impact on the viscosity, pH and stability (predictive methods). […] No significant difference in viscosity, pH and stability are identified for all the evaluated samples.

SMILES	dispersibility by being directly post-added into the finished product
CCCCCCCCCCCCNC(=N)N.Cl [DGH, Dodecylguanidinee Hydrochloride]	acceptable dispersibility
CCCCNC(=O)OCC#CI [IPBC, 3-iodo-2-propynyl butylcarbamate]	acceptable dispersibility
